Usually IC50 stands for the concentration needed to halve the response being measured.

The target of the first assay is T1, ATX activity in plasma (Rattus norvegicus, UniProt Q64610).
T1 construct: from tissue; host or cells: plasma of male Wistar rats after oral dosing (ex vivo)
The assay can be described thus: Measurement of ATX activity in plasma (ex vivo) after oral administration to rats. The conditions noted are these: male Wistar rat, 8 hr after administration, plasma ATX activity vs solvent control. On the procedure:
A compound administration solution prepared by wet pulverization in a mixer mill (type: MM400) for 10 min and adjusting to a given concentration with 0.5% aqueous carboxymethylcellulose solution was orally administered to male Wistar rat (5-week-old when used) at 5 mL/kg. Blood samples were collected from the cervical vein over time at 8 to 24 hr after administration. The blood was heparin-treated using a micro blood collection tube Capiject (CJ-AL, TERUMO CORPORATION), and the plasma was separated by centrifugation (4° C., 12,000 rpm, 2 min), and preserved at −80° C. The rats after blood sampling were euthanized by exsanguination from the caudal vena cava under isoflurane inhalation anesthesia. The measurement of ATX activity in plasma was evaluated using the concentration of choline in the plasma, which was liberated from lysophosphatidylcholine (substrate of ATX) by the lysophospholipase D activity of ATX, as an index. An equal amount of 2× assay buffer (200 mM Tris-HCl pH9.0, 10 mM MgCl2, 1 M NaCl, 0.1% Triton X-100) is added to plasma (12 μL) and reacted at 37° C. for 6 hr. The reaction mixture (10 μL) after reaction for 6 hr and 45 μL of reagent R1 solution (100 mM Tris-HCl pH 8.0, 0.5 mM TOOS, 10 U/mL peroxidase, 0.01% Triton X-100) were added and blended and absorbance at 550-700 nm was measured and used as a prevalue. As the standard, choline chloride was used. 1 mM choline chloride was diluted with 2× assay buffer up to 7 steps in 2-fold serial dilution, R1 solution was treated similarly and the absorbance was measured. Furthermore, 15 μL of reagent R2 solution (100 mM Tris-HCl pH 8.0, 1 mM 4-aminoantipyrine, 10 U/mL choline oxidase, 0.01% Triton X-100) was added, and the mixture was reacted at room temperature for 10 min, and absorbance at 550-700 nm was measured. The choline concentration per reaction time was calculated from the difference between the absorbance after R2 solution addition and prevalue measured before R2 addition and used as ATX activity value. inhibitory activity (%)=100×{1-[choline concentration (μM) of test substance administration group/choline concentration (μM) of solvent control group]} <calculating formula>
In the case of `COc1ccc(-c2cnc(NCc3cccc(OC(F)(F)F)c3)nc2)nc1[C@H]1C[C@@H]1C(=O)O` [17 (compound 4a), (1S,2S)-2-{3-methoxy-6-[2-(3-trifluoromethoxy-benzylamino)-pyrimidin-5-yl]-pyridin-2-yl}-cyclopropanecarboxylic acid], the “Experimental Example 2 rat single administration test (inhibitory activity (%) at 8 hr after 1 mg/kg oral administration)” value is reported as 88%.
As for `COc1c(C#N)cc(-c2ccc(NCc3cccc(OC(F)(F)F)c3)nc2)cc1CCC(=O)O` [Example 10, 3-{3-cyano-2-methoxy-5-[6-(3-trifluoromethoxy-benzylamino)-pyridin-3-yl]-phenyl}-propionic acid], the “Experimental Example 2 rat single administration test (inhibitory activity (%) at 8 hr after 1 mg/kg oral administration)” value is given as 84%.
Same read-out and setting: as for `COc1c(C#N)cc(-c2cnc(NCc3cccc(OC(F)(F)F)c3)nc2)cc1CCC(=O)O` [Example 85], the figure is 88%; as for `COc1ccc(-c2cnc(NCc3cccc(OC(F)(F)F)c3)nc2)cc1C(=O)O` [Example 156], 82%.

The target of the next assay is human recombinant ATX (Homo sapiens, UniProt Q13822). The assay can be described thus: Enzyme inhibitory test (choline release from LPC, fluorescence). It is filed as biochemical. The settings on record: LPC substrate, room temperature 1 hr, read-out: Experimental Example 1 human ATX IC50. On the procedure: A mixture (10 μL) of substrate and a set of choline quantification reagents (200 μM LPC (1-Oleoyl-sn-glycero-3-phosphocholine Sigma #L1881), 25 μM Amplex UltraRed reagent (Invitrogen), 0.1 U/mL Peroxidase (TOYOBO), 1 U/mL Choline oxidase (TOYOBO)), prepared with assay buffer (50 mM Tris (pH 8.0), 140 mM NaCl, 5 mM KCl, 1 mM CaCl2, 1 mM MgCl2, 0.1% BSA (Albumin from bovine serum, SIGMA), 0.0025% Triton X-100), enzyme (0.4 ng/μL human recombinant ATX) (10 μL), compound-containing solution (100 nL) were dispensed to a 384-well plate, incubated at room temperature for 1 hr and the fluorescence (Ex.525 nm/Em.598 nm) was measured. As the standard, choline chloride was used. With a blank free of enzyme was taken as inhibitory rate 100%, and a control free of inhibitor as inhibitory rate 0%, the inhibitory rate was calculated, and IC50 value was calculated from the inhibitory activity percentage at each concentration.
Consider `COc1ccc(-c2ccc(NCc3cccc(OC(F)(F)F)c3)nc2)nc1[C@H]1C[C@@H]1C(=O)O` [16 (compound 1a), (1S,2S)-2-[5-methoxy-6′-(3-trifluoromethoxy-benzylamino)-[2,3′]bipyridinyl-6-yl]-cyclopropanecarboxylic acid], for which the IC50 was determined as 0.002 µM.
With `COc1ccc(-c2cnc(NCc3cccc(OC(F)(F)F)c3)nc2)nc1[C@H]1C[C@@H]1C(=O)O` [17 (compound 4a), (1S,2S)-2-{3-methoxy-6-[2-(3-trifluoromethoxy-benzylamino)-pyrimidin-5-yl]-pyridin-2-yl}-cyclopropanecarboxylic acid], the IC50 turned out to be 0.002 µM.
Consider `O=C(O)c1cccc2nc(-c3ccc(NCc4cccc(OC(F)(F)F)c4)nc3)[nH]c12` [Example 2, 2-[6-(3-trifluoromethoxy-benzylamino)-pyridin-3-yl]-3H-benzimidazole-4-carboxylic acid], for which the IC50 turned out to be 0.046 µM.
In the case of `O=C(O)c1ccc2nc(-c3ccc(NCc4cccc(OC(F)(F)F)c4)nc3)oc2c1` [Example 3, 2-[6-(3-trifluoromethoxy-benzylamino)-pyridin-3-yl]-benzoxazole-6-carboxylic acid], the IC50 is 0.035 µM.
For the compound `Cn1nc(C(=O)O)c2cc(-c3ccc(NCc4cccc(OC(F)(F)F)c4)nc3)ccc21` [Example 7, 1-methyl-5-[6-(3-trifluoromethoxy-benzylamino)-pyridin-3-yl]-1H-indazole-3-carboxylic acid], the IC50 came out at 0.003 µM.
As for `COc1c(C#N)cc(-c2ccc(NCc3cccc(OC(F)(F)F)c3)nc2)cc1CCC(=O)O` [Example 10, 3-{3-cyano-2-methoxy-5-[6-(3-trifluoromethoxy-benzylamino)-pyridin-3-yl]-phenyl}-propionic acid], the IC50 turned out to be 0.017 µM.
For `O=C(O)CCc1cc(-c2cnc(NCc3cccc(OC(F)(F)F)c3)nc2)ccc1Cl` [Example 11, 3-{2-chloro-5-[2-(3-trifluoromethoxy-benzylamino)-pyrimidin-5-yl]-phenyl}-propionic acid], the IC50 was found to be 0.013 µM.
Consider `COc1ccc(-c2cnc(NCc3cccc(OC(F)(F)F)c3)nc2)cc1CCC(=O)O` [Example 21, 3-{2-methoxy-5-[2-(3-trifluoromethoxy-benzylamino)-pyrimidin-5-yl]-phenyl}-propionic acid], for which the IC50 was determined as 0.037 µM.
In the case of `COc1ccc(-c2ccc(NCc3cccc(OC(F)(F)F)c3)nc2)cc1CCC(=O)O` [Example 22, 3-{2-methoxy-5-[6-(3-trifluoromethoxy-benzylamino)-pyridin-3-yl]-phenyl}-propionic acid], the IC50 came out at 0.033 µM.
Same read-out and setting: the same measure for `COc1c(C#N)cc(-c2ccc(NCc3cccc(OC(F)(F)F)c3)nc2)cc1C(C)(C)C(=O)O` [Example 26, 2-{3-cyano-2-methoxy-5-[6-(3-trifluoromethoxy-benzylamino)-pyridin-3-yl]-phenyl}-2-methyl-propionic acid]: 0.015 µM.
Turning to `O=C(O)c1cc(-c2cnc(NCc3cccc(OC(F)(F)F)c3)nc2)cc(OC2CNC2)c1Cl` [Example 30, 3-(azetidin-3-yloxy)-2-chloro-5-[2-(3-trifluoromethoxy-benzylamino)-pyrimidin-5-yl]-benzoic acid], the half-inhibitory concentration (IC50) is 0.022 µM.
Regarding `COc1c(C(=O)O)cc(-c2cnc(NCc3cccc(OC(F)(F)F)c3)nc2)cc1-c1ccncc1` [Example 33, 2-methoxy-3-pyridin-4-yl-5-[2-(3-trifluoromethoxy-benzylamino)-pyrimidin-5-yl]-benzoic acid], the IC50 amounted to 0.01 µM.
Regarding `COc1ccc(-c2ccc(NCc3cccc(OC(F)(F)F)c3)nc2)cc1C(=O)O` [Example 34, 2-methoxy-5-[6-(3-trifluoromethoxy-benzylamino)-pyridin-3-yl]-benzoic acid], the IC50 was 0.083 µM.
Consider `O=C(O)CN1CCN(c2ccc(-c3ccc(NCc4cccc(OC(F)(F)F)c4)nc3)cc2F)C1=O` [Example 44], for which the IC50 worked out at 0.075 µM.
Regarding `COc1c(C#N)cc(-c2ccc(NCc3cccc(OC(F)(F)F)c3)nc2)cc1C(=O)O` [Example 63], the IC50 amounted to 0.025 µM.
In the case of `COc1ccc(-c2ccc(NCc3cccc(OC(F)(F)F)c3)nc2)c2[nH]nc(C(=O)O)c12` [Example 69], the IC50 was 0.01 µM.
Turning to `COCCn1nc(C(=O)O)c2cc(-c3ccc(NCc4cccc(OC(F)(F)F)c4)nc3)ccc21` [Example 73], the IC50 turned out to be 0.009 µM.
As for `Cn1nc(C(=O)O)c2cc(-c3cnc(NCc4cccc(OC(F)(F)F)c4)nc3)ccc21` [Example 74], the IC50 came out at 0.003 µM.
On to `CS(=O)(=O)CCCn1nc(C(=O)O)c2cc(-c3ccc(NCc4cccc(OC(F)(F)F)c4)nc3)ccc21` [Example 75], for which the IC50 was determined as 0.006 µM.
On to `COc1c(C#N)cc(-c2cnc(NCc3cccc(OC(F)(F)F)c3)nc2)cc1CCC(=O)O` [Example 85], for which the IC50 worked out at 0.007 µM.
Still for that read-out and setting: the same measure for `COc1cc(-c2ccc(NCc3cccc(OC(F)(F)F)c3)nc2)ccc1C1CC1C(=O)O` (stereo not shown) [Example 88]: 0.02 µM; for `COc1c(CCC(=O)O)cc(-c2ccc(NCc3cccc(OC(F)(F)F)c3)nc2)cc1C1COC1` [Example 92]: 0.023 µM; for `COc1cc(-c2ccc(NCc3cccc(OC(F)(F)F)c3)nc2)cc(OC)c1CCC(=O)O` [Example 98]: 0.007 µM.
As to `COc1c(Cn2ccnc2)cc(-c2ccc(NCc3cccc(OC(F)(F)F)c3)nc2)cc1C(C)(C)C(=O)O` [Example 108], the IC50 was found to be 0.024 µM.
As to `COc1ccc(-c2ccc(NCc3cccc(OC(F)(F)F)c3)nc2)cc1CC(=O)O` [Example 109], the IC50 is 0.012 µM.
Take `COc1cc(-c2ccc(NCc3cccc(OC(F)(F)F)c3)nc2)ccc1OC[C@H]1CC[C@H](C(=O)O)CC1` [Example 126]: the IC50 was determined as 0.092 µM.
As for `COc1ccc(-c2ccc(NCc3cccc(OC(F)(F)F)c3)nc2)cc1OCC(=O)O` [Example 129], the IC50 amounted to 0.043 µM.
With `COCCOc1cc(-c2cnc(NCc3cccc(OC(F)(F)F)c3)nc2)cc(C(=O)O)c1Cl` [Example 132], the IC50 amounted to 0.015 µM.
In the case of `O=C(O)c1cc(-c2cnc(NCc3cccc(OC(F)(F)F)c3)nc2)cc(OC2CCOCC2)c1Cl` [Example 133], the IC50 was 0.01 µM.
On the same count and under the same terms, as for `O=C(O)c1cc(-c2cnc(NCc3cccc(OC(F)(F)F)c3)nc2)cc(OC2COC2)c1Cl` [Example 136], the figure is 0.031 µM.
With `COc1c(C(=O)O)cc(-c2cnc(NCc3cccc(OC(F)(F)F)c3)nc2)cc1-c1ccoc1` [Example 140], the IC50 worked out at 0.031 µM.
On the same count and under the same terms, the same measure for `COc1ccc(-c2cnc(NCc3cccc(OC(F)(F)F)c3)nc2)cc1C(=O)O` [Example 156]: 0.093 µM; for `COc1ccc(-c2ccc(NCc3cccc(C(C)C)c3)nc2)cc1C(=O)O` [Example 176]: 0.047 µM.

Source of the values: patent US9783522B2, “2-amino-pyridine and 2-amino-pyrimidine derivatives and medicinal use thereof” (MITSUBISHI TANABE PHARMA CORPORATION, priority 2014, dated 2017).
